Tests used:
[1] = biological target: T1, Full length human recombinant HDAC6 (Homo sapiens, UniProt Q9UBN7); experiment: In vitro histone deacetylase assay, enzymatic HDAC6 (electrophoretic mobility shift assay); assay type: biochemical; settings: 1 nM HDAC6; 2 μM peptide substrate FAM-RHKK(Ac)—NH2; 25° C.; 12 concentrations; read-out: HDAC6 Activity Range (IC50)
T1 construct: Full length human recombinant HDAC6 and HDAC11 proteins were expressed in baculoviral system
T1 sequence (Q9UBN7 1-1215): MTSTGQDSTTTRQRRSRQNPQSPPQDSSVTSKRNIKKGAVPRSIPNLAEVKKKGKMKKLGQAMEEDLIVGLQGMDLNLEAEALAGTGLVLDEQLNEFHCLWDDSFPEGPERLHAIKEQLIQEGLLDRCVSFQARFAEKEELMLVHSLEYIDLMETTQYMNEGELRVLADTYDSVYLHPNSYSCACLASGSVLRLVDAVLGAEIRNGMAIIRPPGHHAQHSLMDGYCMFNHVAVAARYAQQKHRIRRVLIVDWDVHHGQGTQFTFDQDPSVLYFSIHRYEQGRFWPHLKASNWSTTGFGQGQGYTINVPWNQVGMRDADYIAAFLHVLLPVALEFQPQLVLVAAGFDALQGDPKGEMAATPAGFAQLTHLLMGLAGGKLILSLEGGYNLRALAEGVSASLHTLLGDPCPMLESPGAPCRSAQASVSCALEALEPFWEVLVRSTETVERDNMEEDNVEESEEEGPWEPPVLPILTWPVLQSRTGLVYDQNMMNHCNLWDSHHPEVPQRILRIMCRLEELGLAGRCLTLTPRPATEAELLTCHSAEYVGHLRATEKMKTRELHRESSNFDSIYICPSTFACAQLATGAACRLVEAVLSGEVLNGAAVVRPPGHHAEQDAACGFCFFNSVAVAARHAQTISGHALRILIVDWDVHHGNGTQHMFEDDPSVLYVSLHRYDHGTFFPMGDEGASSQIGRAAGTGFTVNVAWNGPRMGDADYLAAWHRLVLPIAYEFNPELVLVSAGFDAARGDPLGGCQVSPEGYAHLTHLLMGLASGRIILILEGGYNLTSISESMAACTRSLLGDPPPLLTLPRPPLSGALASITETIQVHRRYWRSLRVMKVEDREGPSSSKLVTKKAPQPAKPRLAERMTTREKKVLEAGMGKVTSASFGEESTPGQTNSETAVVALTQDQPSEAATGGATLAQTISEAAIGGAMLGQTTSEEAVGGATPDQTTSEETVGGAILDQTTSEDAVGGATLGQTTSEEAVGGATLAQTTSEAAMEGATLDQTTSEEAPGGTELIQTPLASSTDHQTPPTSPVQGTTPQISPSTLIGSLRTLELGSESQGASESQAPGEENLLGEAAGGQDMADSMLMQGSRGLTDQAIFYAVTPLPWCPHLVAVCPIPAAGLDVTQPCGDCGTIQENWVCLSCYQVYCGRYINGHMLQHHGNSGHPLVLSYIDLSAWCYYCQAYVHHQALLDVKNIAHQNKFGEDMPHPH
Outline: (§1)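 Baculovirus-expressed full-length enzymes (HDAC6 1 nM, FAM-RHKK(Ac)-NH2; HDAC11 10 nM, FAM-RHKK(tri-fluor-Ac)-NH2), 2 μM substrate, HEPES pH 7.5, 25°C, 12-point 3× dilutions. Product/substrate separated by microfluidic mobility shift after SDS quench; IC50 from 4-parameter fit, reported as +/++/+++ bins.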

[2] = biological target: T2, Full length human recombinant HDAC11 (Homo sapiens, UniProt Q96DB2); experiment: In vitro histone deacetylase assay, enzymatic HDAC11 (electrophoretic mobility shift assay); assay type: biochemical; settings: 10 nM HDAC11; 2 μM peptide substrate FAM-RHKK(tri-fluor-Ac)—NH2; 25° C.; 12 concentrations; read-out: HDAC11 Activity Range (IC50)
T2 construct: Full length human recombinant HDAC6 and HDAC11 proteins were expressed in baculoviral system
T2 sequence (Q96DB2 1-347): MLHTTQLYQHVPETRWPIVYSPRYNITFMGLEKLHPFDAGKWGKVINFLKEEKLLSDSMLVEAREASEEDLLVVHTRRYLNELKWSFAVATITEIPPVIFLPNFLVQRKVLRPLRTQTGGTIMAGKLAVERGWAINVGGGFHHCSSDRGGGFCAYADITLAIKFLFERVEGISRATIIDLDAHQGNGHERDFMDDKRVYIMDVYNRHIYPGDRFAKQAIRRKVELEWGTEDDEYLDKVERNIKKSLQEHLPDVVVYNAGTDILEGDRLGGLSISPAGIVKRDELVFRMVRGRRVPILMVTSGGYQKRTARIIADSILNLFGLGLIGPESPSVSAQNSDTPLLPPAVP
Outline: as §1

Structure (SMILES) | IC50 [1] | IC50 [2]
O=C(NO)c1ccc2c(c1)C[C@@]1(CC2)CCN(Cc2c(Cl)cccc2Cl)C1=O [Compound I-68, (S)-1′-(2,6-dichlorobenzyl)-N-hydroxy-2′-oxo-3,4-dihydro-1H-spiro[naphthalene-2,3′-pyrrolidine]-7-carboxamide] | ≤ 100 nM | > 500 nM
O=C(NO)c1ccc2c(c1)C[C@]1(CCNC1=O)CC2 [Compound I-47, (S)—N-hydroxy-2′-oxo-3,4-dihydro-1H-spiro[naphthalene-2,3′-pyrrolidine]-7-carboxamide] | ≤ 100 nM | > 500 nM
O=C(NO)c1ccc2c(c1)C[C@]1(CC2)CCN(Cc2ccc(F)cc2)C1=O [Compound I-42, (R)-1′-(4-fluorobenzyl)-N-hydroxy-2′-oxo-3,4-dihydro-1H-spiro[naphthalene-2,3′-pyrrolidine]-7-carboxamide] | ≤ 100 nM | ≤ 100 nM
CC(C)CN1C[C@]2(CCc3ccc(C(=O)NO)cc3C2)CC1=O [Compound I-138, (S)—N-hydroxy-1′-isobutyl-5′-oxo-3,4-dihydro-1H-spiro[naphthalene-2,3′-pyrrolidine]-7-carboxamide] | ≤ 100 nM | > 500 nM
O=C(NO)c1ccc2c(c1)C[C@@]1(CC2)CC(=O)N(CC(F)(F)F)C1 [Compound I-144, (S)—N-hydroxy-5′-oxo-1′-(2,2,2-trifluoroethyl)-3,4-dihydro-1H-spiro[naphthalene-2,3′-pyrrolidine]-7-carboxamide] | ≤ 100 nM | > 500 nM
CN1CC[C@]2(CCc3ccc(C(=O)NO)cc3C2)C1 [Compound I-19, (R)—N-hydroxy-1′-methyl-3,4-dihydro-1H-spiro[naphthalene-2,3′-pyrrolidine]-7-carboxamide] | 100 to 500 nM | > 500 nM
CC#CCN1CC[C@]2(CCc3ccc(C(=O)NO)cc3C2)C1=O [Compound I-83, (R)-1′-(but-2-yn-1-yl)-N-hydroxy-2′-oxo-3,4-dihydro-1H-spiro[naphthalene-2,3′-pyrrolidine]-7-carboxamide] | ≤ 100 nM | > 500 nM
O=C(NO)c1ccc2c(c1)C[C@@]1(CC2)CCN(Cc2cccnc2)C1=O [Compound I-70, (S)—N-hydroxy-2′-oxo-1′-(pyridin-3-ylmethyl)-3,4-dihydro-1H-spiro[naphthalene-2,3′-pyrrolidine]-7-carboxamide] | ≤ 100 nM | > 500 nM
CS(=O)(=O)c1ccc(CN2CC[C@]3(CCc4ccc(C(=O)NO)cc4C3)C2=O)cc1 [Compound I-51, (R)—N-hydroxy-1′-(4-(methylsulfonyl)benzyl)-2′-oxo-3,4-dihydro-1H-spiro[naphthalene-2,3′-pyrrolidine]-7-carboxamide] | ≤ 100 nM | ≤ 100 nM
COCCCN1C[C@@]2(CCc3ccc(C(=O)NO)cc3C2)CC1=O [Compound I-135, (R)—N-hydroxy-1′-(3-methoxypropyl)-5′-oxo-3,4-dihydro-1H-spiro[naphthalene-2,3′-pyrrolidine]-7-carboxamide] | ≤ 100 nM | > 500 nM
O=C(NO)c1ccc2c(c1)OC1(CC2)CCN(C(=O)Nc2ccccc2)CC1 [II-4, N7-hydroxy-N1′-phenylspiro[chroman-2,4′-piperidine]-1′,7-dicarboxamide] | ≤ 100 nM | > 500 nM
CN1C[C@]2(CCc3ccc(C(=O)NO)cc3C2)CC1=O [Compound I-131, (S)—N-hydroxy-1′-methyl-5′-oxo-3,4-dihydro-1H-spiro[naphthalene-2,3′-pyrrolidine]-7-carboxamide] | ≤ 100 nM | > 500 nM
O=C(NO)c1ccc2c(c1)C[C@]1(CC2)CC(=O)N(C2CC2)C1 [Compound I-148, (R)-1′-cyclopropyl-N-hydroxy-5′-oxo-3,4-dihydro-H-spiro[naphthalene-2,3′-pyrrolidine]-7-carboxamide] | ≤ 100 nM | > 500 nM
O=C(NO)c1ccc2c(c1)CC1(CC2)CCN(C(=O)Nc2ccccc2)C1 (stereo not drawn) [Compound I-6, N7-hydroxy-N1′-phenyl-3,4-dihydro-1H-spiro[naphthalene-2,3′-pyrrolidine]-1′,7-dicarboxamide] | ≤ 100 nM | 100 to 500 nM
O=C(NO)c1ccc2c(c1)CC1(CC2)CCN(Cc2ccc(Cl)c(Cl)c2)C1=O (stereo not drawn) [Compound I-21, 1′-(3,4-dichlorobenzyl)-N-hydroxy-2′-oxo-3,4-dihydro-1H-spiro[naphthalene-2,3′-pyrrolidine]-7-carboxamide] | ≤ 100 nM | ≤ 100 nM
O=C(NO)c1ccc2c(c1)CC1(CC2)CCN(S(=O)(=O)C2CCCCC2)C1 (stereo not drawn) [Compound I-7, 1′-(cyclohexylsulfonyl)-N-hydroxy-3,4-dihydro-1H-spiro[naphthalene-2,3′-pyrrolidine]-7-carboxamide] | ≤ 100 nM | > 500 nM
O=C(NO)c1ccc2c(c1)C[C@@]1(CC2)CCN(Cc2ccc3nonc3c2)C1=O [Compound I-63, (S)-1′-(benzo[c][1,2,5]oxadiazol-5-ylmethyl)-N-hydroxy-2′-oxo-3,4-dihydro-1H-spiro[naphthalene-2,3′-pyrrolidine]-7-carboxamide] | ≤ 100 nM | > 500 nM
O=C(NO)c1ccc2c(c1)C[C@]1(CC2)CCN(CC2CCOCC2)C1=O [Compound I-85, (R)—N-hydroxy-2′-oxo-1′-((tetrahydro-2H-pyran-4-yl)methyl)-3,4-dihydro-1H-spiro[naphthalene-2,3′-pyrrolidine]-7-carboxamide] | ≤ 100 nM | > 500 nM
CC#CCN1CC[C@@]2(CCc3ccc(C(=O)NO)cc3C2)C1=O [Compound I-55, (S)-1′-(but-2-yn-1-yl)-N-hydroxy-2′-oxo-3,4-dihydro-1H-spiro[naphthalene-2,3′-pyrrolidine]-7-carboxamide] | ≤ 100 nM | > 500 nM
O=C(NO)c1ccc2c(c1)C[C@]1(CC2)CCN(Cc2ccc(Cl)cc2)C1=O [Compound I-38, (R)-1′-(4-chlorobenzyl)-N-hydroxy-2′-oxo-3,4-dihydro-1H-spiro[naphthalene-2,3′-pyrrolidine]-7-carboxamide] | ≤ 100 nM | > 500 nM
O=C(NO)c1ccc2c(c1)C[C@]1(CC2)CCN(Cc2ccccn2)C1=O [Compound I-98, (R)—N-hydroxy-2′-oxo-1′-(pyridin-2-ylmethyl)-3,4-dihydro-1H-spiro[naphthalene-2,3′-pyrrolidine]-7-carboxamide] | ≤ 100 nM | > 500 nM
O=C(NO)c1ccc2c(c1)C[C@]1(CC2)CCN(Cc2ccccc2)C1=O [Compound I-36, (R)-1′-benzyl-N-hydroxy-2′-oxo-3,4-dihydro-1H-spiro[naphthalene-2,3′-pyrrolidine]-7-carboxamide] | ≤ 100 nM | 100 to 500 nM
O=C(NO)c1ccc2c(c1)C[C@]1(CC2)CCN(Cc2ccccc2Cl)C1=O [Compound I-89, (R)-1′-(2-chlorobenzyl)-N-hydroxy-2′-oxo-3,4-dihydro-1H-spiro[naphthalene-2,3′-pyrrolidine]-7-carboxamide] | ≤ 100 nM | ≤ 100 nM
O=C(NO)c1ccc2c(c1)C[C@]1(CC2)CCN(Cc2ccccc2OC(F)(F)F)C1=O [Compound I-90, (R)—N-hydroxy-2′-oxo-1′-(2-(trifluoromethoxy)benzyl)-3,4-dihydro-1H-spiro[naphthalene-2,3′-pyrrolidine]-7-carboxamide] | ≤ 100 nM | ≤ 100 nM
